In the NIST ThermoML archive (doi:10.1021/acs.jced.8b01233):
Values joined by “and” are separate entries in the source; they are usually repeats but may differ in a detail not shown here. Identical values can stand only once. ± gives the expanded uncertainty stated by the source.

Conditions: for viscosity / mass density / speed of sound: 102 kPa, Liquid; for viscosity: Concentric cylinders viscometry; for mass density: Vibrating tube method; for speed of sound: Frequency=3 MHz, Single path-length method; for surface tension liquid-gas: Pendant drop shape

| Compound | viscosity (253.15 K) | speed of sound (288.15 K) | mass density (288.15 K) | viscosity (293.15 K) | speed of sound (293.15 K) | mass density (293.15 K) | speed of sound (298.15 K) | mass density (298.15 K) | viscosity (303.15 K) | speed of sound (303.15 K) | mass density (303.15 K) | viscosity (313.15 K) | speed of sound (313.15 K) | mass density (313.15 K) | viscosity (323.15 K) | speed of sound (323.15 K) | mass density (323.15 K) | viscosity (333.15 K) | speed of sound (333.15 K) | mass density (333.15 K) | other results |
| --- | --- | --- | --- | --- | --- | --- | --- | --- | --- | --- | --- | --- | --- | --- | --- | --- | --- | --- | --- | --- | --- |
| CC(CC(C)(C)C)CC(C)(C)CC(C)(C)C (stereo unspecified) [2,2,4,4,6,8,8-heptamethylnonane] | 14.1 ± 0.1 mPa·s | 1305.1 ± 1 m/s | 787.84 ± 0.52 kg/m3 and 787.76 ± 0.52 kg/m3 | 3.73 ± 0.03 mPa·s | 1286 ± 1 m/s | 784.51 ± 0.52 kg/m3 and 784.4 ± 0.52 kg/m3 | 1267.1 ± 1 m/s | 781.15 ± 0.52 kg/m3 and 781.05 ± 0.52 kg/m3 | 2.96 ± 0.03 mPa·s | 1248.1 ± 1 m/s | 777.8 ± 0.52 kg/m3 and 777.7 ± 0.52 kg/m3 | 2.4 ± 0.02 mPa·s | 1211.8 ± 1 m/s | 771.09 ± 0.52 kg/m3 and 770.99 ± 0.52 kg/m3 | 1.98 ± 0.02 mPa·s | 1176.1 ± 1 m/s | 764.36 ± 0.52 kg/m3 and 764.27 ± 0.52 kg/m3 | 1.66 ± 0.02 mPa·s | 1141.3 ± 1 m/s | 757.62 ± 0.52 kg/m3 and 757.53 ± 0.52 kg/m3 | mass density (253.15 K): 811.5 ± 2 kg/m3 and 811.4 ± 2 kg/m3; surface tension liquid-gas (295 K): 24.2 ± 0.3 mN/m |
| CCCCc1ccccc1 [butylbenzene] | 2.36 ± 0.06 mPa·s | 1373.7 ± 0.8 m/s | 864.7 ± 0.31 kg/m3 | 1.04 ± 0.02 mPa·s | 1353.8 ± 0.8 m/s | 860.69 ± 0.31 kg/m3 | 1334.1 ± 0.8 m/s | 856.68 ± 0.31 kg/m3 | 0.891 ± 0.021 mPa·s | 1314.5 ± 0.8 m/s | 852.65 ± 0.31 kg/m3 | 0.773 ± 0.021 mPa·s | 1276.1 ± 0.8 m/s | 844.6 ± 0.31 kg/m3 | 0.679 ± 0.021 mPa·s | 1238.4 ± 0.8 m/s | 836.51 ± 0.31 kg/m3 | 0.601 ± 0.021 mPa·s | 1201.7 ± 0.8 m/s | 828.38 ± 0.31 kg/m3 | mass density (253.15 K): 892.8 ± 2 kg/m3; surface tension liquid-gas (295 K): 28.8 ± 0.3 mN/m |
| CCCCC1CCCCC1 [butylcyclohexane] | 3.08 ± 0.06 mPa·s | 1348.8 ± 1.2 m/s | 803.07 ± 0.73 kg/m3 | 1.32 ± 0.02 mPa·s | 1328.3 ± 1.2 m/s | 799.33 ± 0.73 kg/m3 | 1308.1 ± 1.2 m/s | 795.57 ± 0.73 kg/m3 | 1.11 ± 0.02 mPa·s | 1288 ± 1.2 m/s | 791.81 ± 0.73 kg/m3 | 0.95 ± 0.021 mPa·s | 1248.6 ± 1.2 m/s | 784.27 ± 0.73 kg/m3 | 0.826 ± 0.021 mPa·s | 1210.1 ± 1.2 m/s | 776.71 ± 0.73 kg/m3 | 0.729 ± 0.021 mPa·s | 1172.6 ± 1.2 m/s | 769.1 ± 0.73 kg/m3 | mass density (253.15 K): 829.9 ± 2 kg/m3; surface tension liquid-gas (294.5 K): 26.6 ± 0.4 mN/m |
| CCCCCCCCCCCC [dodecane] | – | 1317.4 ± 1 m/s | 752.41 ± 0.53 kg/m3 | 1.51 ± 0.02 mPa·s | 1297.9 ± 1 m/s | 748.79 ± 0.53 kg/m3 | 1278.7 ± 1 m/s | 745.16 ± 0.53 kg/m3 | 1.25 ± 0.02 mPa·s | 1259.5 ± 1 m/s | 741.53 ± 0.53 kg/m3 | 1.06 ± 0.02 mPa·s | 1221.7 ± 1 m/s | 734.25 ± 0.53 kg/m3 | 0.916 ± 0.021 mPa·s | 1184.5 ± 1 m/s | 726.94 ± 0.53 kg/m3 | 0.798 ± 0.021 mPa·s | 1148.2 ± 1 m/s | 719.59 ± 0.53 kg/m3 | surface tension liquid-gas (295 K): 24.9 ± 0.3 mN/m |
